# Measurements reported in US6900242B2, “Lactone formulations and method of use” (Magnachem International Laboratories, Inc., priority 2001, dated 2005).
# Assays:
# [1] = test system: Staphyloccus aureus ATCC 12598; experiment: Anti-bacterial activity, sensitivity disc zone of inhibition; type: cell-based, Staphylococcus aureus; details: for zone of inhibition: St. a
# Protocol: (§1) The material obtained in Example 1 was screened for antibiotic activity against Staphylococcus aureus, Pseudomonas aeroginosa, Escherichia coli, and Klebsiella pneumoniae. • Solvent: Buffer Phosphate 0.1 N, pH=8.0 • Antibiotic: LMSV-6 (Pure, Securolide) • Medium coat: 2 mL/100 mL • Inoculum: 4 mL/Petri Dish Preparation of Culture Medium: [table] Microorganisms used were standardized by American Type Culture Collection (ATCC), used in first generation: • E. coli ATCC 352 18, Lot 202602, Exp. 05/2000 (19-258) • *Kleb. Klebsiela pneumoniae, ATCC 13882, Lot 202 174, Exp 02/2000 (19-152) • *Ps. A Pseudomona aeroginosa ATCC 27853, Lot 202992, Exp 08/2000 (19-060) • *St. A Staphyloccus aureus ATCC 12598, Lot 202564, Exp 05/2000 (19-137) • **Str. P Streptoccus pyogenes, ATCC 2 1547, Lote 202691, Exp 06/2000 (19-190) • *=Atmospheric oxygen, Temp=35±2° C. • **=Atmopheric CO2, Temp=35±2° C.
# E. coli ATCC 352 18 = experiment: as above; type: cell-based, Escherichia coli; details: for zone of inhibition: E. coli
# Protocol: as §1
# [2] = test system: Klebsiela pneumoniae, ATCC 13882; experiment: as above; type: cell-based, Klebsiella pneumoniae; details: for zone of inhibition: Kleb
# Protocol: as §1
# [3] = test system: Pseudomona aeroginosa ATCC 27853; experiment: as above; type: cell-based, Pseudomonas aeroginosa; details: for zone of inhibition: Ps. A
# Protocol: as §1
# [4] = test system: anaerobic gram negative organisms associated with gingivitis; experiment: Topical application to affected gingiva (gingivitis); type: in vivo; details: topically applied to the affected gingiva
# [5] = test system: HEP-2 cells (laringe carcinoma); experiment: Cytotoxic assay (MTT) in HEP-2 cells; type: cell-based; details: Homo sapiens, HEp-2, HEP-2 cells
# Excerpt: (§2) There are a large number of biological assays that require the measurement of surviving or proliferating mammalian cells. This can be achieved by different methods, e.g. counting cells that exclude or include a dye; measuring released ^51Cr labeled protein after cell lysis; and measuring incorporation of radiactive nucleotides radiactive [^3H]thymidine) or [^125I]iododeoxyuridine) during cells proliferation.
# (§3) Viable cells can be measured by using any of several staining methods, but a more accurate method is the multiwell scanning spectrophotometers (ELISA readers) which can measure large number of samples with a high degree of precision.
# (§4) A colorimetric assay to detect living cells, utilizing a colorless substrate that is modified to a colored product by any living cell, but not by dead cells or tissue culture medium, was used. […] The Formazan concentration in a gradient of Securolide concentrations was measured by multiwells scanning spectrophotometer (ELISA reader). Data analysis was then used to establish the Inhibitory concentration fifty (IC50) which is a quantitative parameter of antineoplastic activity. […]
# (§5) Assessment of cell growth inhibition was determined according to the methods of Skehan et aL, J. Nat. […] Optical density was measured at 570 nm. […]
# Candida albicans = Candida albicans MIC / minimal fungicidal concentration assays; type: cell-based; details: concomitant assays
# Protocol: Candida albicans cells were prepared as indicated in the J. Antimicrobial Chemotherapy 38, 579-587, and were washed 3 times with a 0.1 M phosphate solution and used immediately to determine the minimal inhibitory concentration (MIC). The MICs were determined by modification of a microtitre plate according to the standard method of the laboratory clinical standards of the Comite National. RPMI-1640, and L-glutamine buffered at pH 7 with a 0.15 M solution of MOPS (3-[N-morpholino]propane sulfonic acid). Candida albicans cells (1.5×10^3 cells/ml) were added to the wells of a 96-well plate containing RPMI-1640 and dilutions of antifungal agents. The results were read 48 hours after incubation at 35° C. and the MIC or the minimal inhibitory concentration which inhibited the growth of the Candida albicans cells was determined. After reading the MIC at 48 hours, the plates were shaken and 10 μl of well aliquot was removed from the wells which was placed on rectangular disks containing dextrose sugar. The plates were incubated for 48 hours at 35° C. and the minimal fungicidal concentration and the concentration of the antifungal agent at which there were no number of colony forming units.
# [6] = test system: HELA cells (cervix carcinoma); experiment: Cytotoxic assay (MTT) in HELA cells; type: cell-based; details: Homo sapiens
# Excerpt: as §2, §3, §4, §5
# [7] = test system: Staphylococcus aureus, Pseudomonas aeroginosa, Escherichia coli, and Klebsiella pneumoniae; experiment: Anti-bacterial activity of LMSV-6 dilutions (text summary, whole panel); type: cell-based; details: dilutions 10, 20, 30 and 40 microliters/10 mL of LMSV-6 in Tween 60-2%
# Protocol: The material obtained in Example 1 was screened for antibiotic activity against Staphylococcus aureus, Pseudomonas aeroginosa, Escherichia coli, and Klebsiella pneumoniae.
# • Solvent: Buffer Phosphate 0.1 N, pH=8.0 • Antibiotic: LMSV-6 (Pure, Securolide) • Medium coat: 2 mL/100 mL • Inoculum: 4 mL/Petri Dish Preparation of Culture Medium: […]
# Sarcina lutea = experiment: Minimum Inhibitory Concentration, poured in plate, sensitivity disc; type: cell-based
# Protocol: • Methodology: Poured in plate, medium Mueler Hinton pH=8 • Buffer pH=8 for ceftriaxone pattern dilution • Tween 20 at 2% for LMSV-6 (Securolide) dilution • Microorganism: Sarcina lutea • Sample(s): LMSV-6 (16.0 microliters/100 mL and 10 microliter applied to sensitivity disc). Methodology: Poured in plate, medium Mueler Hinton p&8 • Buffer pH=8 for ceftriaxone pattern dilution • Tween 20 at 2% for LMSV-6 (Securolide) dilution • Used Microorganism: Sarcina lutea • Sample(S): LMSV-6 (10 microliters/mL and 20 microliter applied to sensitivity disc) • Control Pattern (P): Ceftriaxone (disc with 10 mcg) Results: […]
# bacterial infection = experiment: In vivo treatment of bacterial infection, rats infected in surgery; details: doses calculated by comparison with ceftriaxone
# H. pylori = experiment: Patient endoscopy before and after treatment, H. pylori; type: in vivo, human; details: patients
# Excerpt: There are several methods used clinically to determine whether Helicobacter pylori is present in a human subject. These are employed for initial diagnosis of infection prior to treatment, as well as for determining the success of treatment in eradicating the organism from the patient. Endoscopy of the patient provides samples of tissue which can be cultured in a microaerophilic environment to diagnose H. pylori infection. Alternatively, the sample can be examined histologically by employing one of a number of stains such as Giemsa or hematoxylin-eosin. An urea test which takes advantage of the production of urease by H. pylori, can also be applied. This test relies on the formation of ammonia from the urea hydrolysis, which results in an observable change in pH, that is an indication of the […] of H. pylori.
# Actinomyces viscosus = experiment: MIC, procedure of Walker et al; type: cell-based
# Excerpt: (§6) The minimum inhibitory concentration (MIC) needed to kill Bacteroides assaccharolyticus (Forsyth strain), determined according to the procedure of Walker et al (Antimicrobial and Chemotherapy, Vol. 16, p. 452-457, (1979), is between 6 to 60 micrograms per ml. The MIC value for B. gingivalis is 6 micrograms per ml. The MIC value for B. gracilis and Fusobacterium, other gram negative organisms is about 25 for each; and the MIC value for the gram positive organism Actinomyces viscosus is 60 for the aerobic strain and 60 for the anaerobic strain.
# B. gracilis = experiment: MIC, procedure of Walker et al; type: cell-based
# Excerpt: as §6
# [8] = test system: Bacteroides assaccharolyticus (Forsyth strain); experiment: MIC, procedure of Walker et al; type: cell-based; details: read-out: minimum inhibitory concentration (MIC)
# Excerpt: as §6
# Fusobacterium = experiment: MIC, procedure of Walker et al; type: cell-based
# Excerpt: as §6
# B. gingivalis = experiment: MIC, procedure of Walker et al; type: cell-based; details: Porphyromonas gingivalis
# Excerpt: as §6
# [9] = disc of sensitivity 50 micrograms
# [10] = disc of sensitivity 5 micrograms
smiles,measurement,setting,value
"C[C@@H]1O[C@@H]1P(=O)(O)O [osf, Fosfomicina, reference compound]",zone of inhibition,[1]; [9],18 mm
same,zone of inhibition,E. coli ATCC 352 18; [9],10 mm
same,zone of inhibition,[2]; [9],22 mm
same,zone of inhibition,[3]; [9],6 mm
C=C1CCOC1=O [LMSV-6],effect against gingivitis organisms,[4],selectively effective
same,zone of inhibition,[1]; LMSV-6 (puro),30 mm
same,inhibition of growth,"[1]; Staphyloccus aureus, 5 microliters",inhibits growth
same,zone of inhibition,E. coli ATCC 352 18; LMSV-6 (puro),30 (mm)
same,inhibition of growth,"E. coli ATCC 352 18; Escherichia coli, 5 microliters",inhibits growth
same,zone of inhibition,[2]; LMSV-6 (puro),40 mm
same,inhibition of growth,"[2]; Klebsiela pneumonae, 5 microliters",inhibits growth
same,IC50,[5]; population of 10^5 Cells/mL,10.4 µg/mL
same,IC50,[5]; population of 10^6 Cells/mL,37.4 µg/mL
same,activity against Candida albicans,Candida albicans,high activity
same,zone of inhibition,[3]; LMSV-6 (puro),30 mm
same,inhibition of growth,"[3]; Pseudomonas aeroginosa, 5 microliters",inhibits growth
same,IC50,[6]; population of 10^5 Cells/mL,7.37 µg/mL
same,IC50,[6]; population of 10^6 Cells/mL,27.3 µg/mL
same,inhibition of bacterial growth,[7],did not exhibit inhibition of bacterial growth
same,inhibition (zone),Sarcina lutea; 0.2 microliters of LMSV-6,3.3 mm
same,ZONE OF INHIBITION,Sarcina lutea; applied volume to disc 1.6 microliters,20.0 mm
same,ZONE OF INHIBITION,Sarcina lutea; applied volume to disc 5 microliters,42.0 mm
same,Minimum Inhibitory Concentration (MIC),Sarcina lutea; approximate,~0.2 µL
same,treatment of bacterial infection,bacterial infection,successfully treated
same,H. pylori by endoscopy before and after treatment,H. pylori,decrease or absence of H. pylori
same,MIC value,Actinomyces viscosus; aerobic strain,60 µg/mL
same,MIC value,Actinomyces viscosus; anaerobic strain,60 µg/mL
same,MIC value,B. gracilis,about 25
same,MIC,[8],6 to 60 µg/mL
same,MIC value,Fusobacterium,about 25
same,MIC,B. gingivalis,6 µg/mL
"O=C(O)c1cn(C2CC2)c2cc(N3CCNCC3)c(F)cc2c1=O [Ciprof, Ciprofloxacina, reference compound]",zone of inhibition,[1]; [10],20 mm
same,zone of inhibition,E. coli ATCC 352 18; [10],28 mm
same,zone of inhibition,[2]; [10],26 mm
same,zone of inhibition,[3]; [10],12 mm
